According to patent US12679878B2, “CRF2 receptor agonists and their use in therapy” (SANOFI, priority 2020, dated 2026):
Read-outs that look alike come from different tables or passages of the source. Starred links: 1 amine or outer side, 2 acyl side, 3 side chain; linkers in the order of their positions; H or OH if unused. Non-standard residues stand in square brackets, D forms with d. Residues, ends and D or L forms follow the SMILES beside them. Groups on a side chain read outwards from the residue. *: point of attachment. C18 diacid = O=C(O)CCCCCCCCCCCCCCCCC(=O)*; γGlu = O=C(O)[C@H](CCC(=O)[*:2])N[*:1]; Palmitoyl = CCCCCCCCCCCCCCCC(=O)*; AEEA = NCCOCCOCC(=O)O; Aib = CC(C)(N)C(=O)O

What was measured:
human CRF2α receptor = target: T1, human CRF2α receptor (Homo sapiens, UniProt Q13324); assay: cAMP agonism at human CRF2 α receptor in TeloHEAC cells (Example 7); format: cell-based; details: cAMP HTRF, TeloHEAC cells stably expressing human CRF2 α
T1 construct: expressed in transfected cells; host or cells: TeloHEAC
T1 sequence (Q13324 1-411): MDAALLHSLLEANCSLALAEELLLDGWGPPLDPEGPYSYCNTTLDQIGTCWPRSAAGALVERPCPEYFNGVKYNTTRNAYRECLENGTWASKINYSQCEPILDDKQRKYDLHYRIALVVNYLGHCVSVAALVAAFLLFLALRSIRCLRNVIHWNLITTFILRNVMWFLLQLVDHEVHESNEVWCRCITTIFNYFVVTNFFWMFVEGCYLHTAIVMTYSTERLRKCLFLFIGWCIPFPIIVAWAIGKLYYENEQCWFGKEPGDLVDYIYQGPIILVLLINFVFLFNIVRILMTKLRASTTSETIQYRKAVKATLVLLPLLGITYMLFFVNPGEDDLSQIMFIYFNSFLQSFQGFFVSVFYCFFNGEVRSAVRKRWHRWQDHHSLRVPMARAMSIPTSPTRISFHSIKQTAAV
Method in brief: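 Cryopreserved cells are thawed, washed and resuspended in IBMX-containing (2 mM) HEPES-buffered HBSS with or without 0.1% HSA. Compound incubation runs 30 min at room temperature with 2000 cells per well, then cAMP is measured by time-resolved FRET. Potency is expressed as EC50, efficacy relative to urocortin 2 at 1000 nM.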

[1] = Solubility in buffer systems by UPLC-UV (Example 13); format: physicochemical; details: pH 4.5, Solubility in Buffer B [mg/ml]
Method: Prior to performing the solubility measurements, the purity of the compounds was determined through UPLC/MS. […] Therefore, solutions from solid samples were prepared in a buffer system with a concentration of 10 mg/mL compound based on the previously determined % purity.
UPLC-UV was performed after 1 hour of gentle agitation from the supernatant, which was obtained after 15 minutes of centrifugation at 2500 RCF (relative centrifugal acceleration). The solubility was determined by the comparison of the UV peak area of a 2 μL-injection of a buffered sample diluted 1:10 with a standard curve of a reference compound with known concentration. The different UV extinction coefficients of sample and reference compound were calculated based on the different amino acid sequences and considered in the concentration calculation.

rat CRF2R α receptor = assay: cAMP agonism at rat CRF2R α receptor in A7R5 rat aortic smooth muscle cells (Example 8); format: cell-based; details: cAMP HTRF, A7R5 rat aortic smooth muscle cell line, 0% HSA
Method in brief: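 Potency (EC50) is the concentration reaching half-maximal activation, with responses scaled so that 1000 nM urocortin 2 equals 100%. Intracellular cAMP was quantified by homogeneous time-resolved fluorescence at 665/620 nm, 1 h after lysis-buffer reagents. Compound stimulation lasted 30 min at room temperature on 2000 IBMX-treated (2 mM) cells per well in HEPES-buffered HBSS.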

CRF1R receptor = target: T2, CRF1R receptor (Homo sapiens, UniProt P34998); assay: cAMP activity at anti-target CRF1R, CRF1R-overexpression CHO cell line (Example 9); format: cell-based; details: CRF1R-overexpression CHO cell line; for EC50: 0% HSA; for Emax: read-out: Emax (%)
T2 construct: host or cells: CHO-K1 clone 2
T2 sequence (P34998 24-415): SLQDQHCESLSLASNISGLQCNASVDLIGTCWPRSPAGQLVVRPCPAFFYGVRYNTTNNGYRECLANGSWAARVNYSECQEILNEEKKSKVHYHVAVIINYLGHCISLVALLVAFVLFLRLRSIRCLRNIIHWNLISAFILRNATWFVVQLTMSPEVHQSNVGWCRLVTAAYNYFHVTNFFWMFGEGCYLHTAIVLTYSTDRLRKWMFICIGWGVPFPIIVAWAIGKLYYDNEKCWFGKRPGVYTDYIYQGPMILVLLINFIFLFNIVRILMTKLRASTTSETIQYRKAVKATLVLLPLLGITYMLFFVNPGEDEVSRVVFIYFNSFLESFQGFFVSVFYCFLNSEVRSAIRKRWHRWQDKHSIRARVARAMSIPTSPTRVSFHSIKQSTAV
Method in brief: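 Using thawed CRF1R-overexpressing CHO cells at 2000 per well, compound is applied for 30 min at RT in HBSS/HEPES buffer with IBMX. Cellular cAMP content is determined via HTRF, and percent activity is calculated against 1000 nM UCN2 defined as 100%.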

[2] = 0% HSA, read-out: EC50 [nM], 0% HSA
[3] = 0.1% HSA, read-out: EC50 [nM], 0.1% HSA

EC50 (human CRF2α receptor; [2]) [nM]	EC50 (human CRF2α receptor; [3]) [nM]	solubility at 1 h [1] [µg/mL]	EC50 (rat CRF2R α receptor) [nM]	EC50 (CRF1R receptor) [nM]	Emax (CRF1R receptor) [%]	SMILES
0.01	0.01	> 7600				CCCCCCCCCCCCCCCC(=O)N[C@@H](CCC(=O)NCCCC[C@H](NC(=O)[C@H](CC(C)C)NC(=O)[C@H](CCCCN)NC(=O)[C@@H](NC(=O)[C@@H]1CCCN1C(=O)[C@@H](NC(=O)[C@H](CC(=O)O)NC(=O)[C@H](CC(C)C)NC(=O)[C@H](CO)NC(=O)[C@H](CC(C)C)NC(=O)[C@@H](NC(=O)[C@@H](N)[C@@H](C)CC)C(C)C)C(C)C)[C@@H](C)CC)C(=O)N[C@@H](CCCCN)C(=O)N[C@H](C(=O)N[C@@H](CC(C)C)C(=O)N[C@@H](CC(C)C)C(=O)N[C@@H](CCC(=O)O)C(=O)N[C@@H](CCC(N)=O)C(=O)N[C@@H](CCC(=O)O)C(=O)N[C@@H](CCCCN)C(=O)N[C@@H](CCC(N)=O)C(=O)N[C@@H](CCC(=O)O)C(=O)N[C@@H](CCCCN)C(=O)N[C@@H](CCC(=O)O)C(=O)N[C@@H](CCCCN)C(=O)N[C@@H](CCC(N)=O)C(=O)N[C@@H](CCC(N)=O)C(=O)N[C@@H](C)C(=O)N[C@@H](CCC(=O)O)C(=O)N[C@H](C(=O)N[C@@H](CC(N)=O)C(=O)N[C@@H](C)C(=O)N[C@@H](CCC(N)=O)C(=O)N[C@H](C(=O)N[C@@H](CC(C)C)C(=O)N[C@@H](C)C(=O)N[C@@H](CCC(N)=O)C(=O)N[C@H](C(N)=O)C(C)C)[C@@H](C)CC)[C@@H](C)O)[C@@H](C)CC)C(=O)O [compound 2] (H-IVLSLDVPIKLK([γGlu-Palmitoyl])KILLEQEKQEKEKQQAETNAQILAQV-NH2; N-terminus assumed)
0.01		> 8800				CCCCCCCCCCCCCCCC(=O)N[C@@H](CCC(=O)NCCCC[C@H](NC(=O)[C@H](CC(C)C)NC(=O)[C@H](CCCCN)NC(=O)[C@@H](NC(=O)[C@@H]1CCCN1C(=O)[C@@H](NC(=O)[C@H](CC(=O)O)NC(=O)[C@H](CC(C)C)NC(=O)[C@H](CO)NC(=O)[C@H](CC(C)C)NC(=O)[C@@H](NC(=O)[C@@H](N)[C@@H](C)CC)C(C)C)C(C)C)[C@@H](C)CC)C(=O)N[C@@H](CCCCN)C(=O)N[C@H](C(=O)N[C@@H](CC(C)C)C(=O)N[C@@H](CC(C)C)C(=O)N[C@@H](CCC(=O)O)C(=O)N[C@@H](CCC(N)=O)C(=O)N[C@@H](CCC(=O)O)C(=O)N[C@@H](CCCCN)C(=O)N[C@@H](CCC(N)=O)C(=O)N[C@@H](CCC(=O)O)C(=O)N[C@@H](CCCCN)C(=O)N[C@@H](CCC(=O)O)C(=O)N[C@@H](CCCCN)C(=O)N[C@@H](CCC(N)=O)C(=O)N[C@@H](CCC(N)=O)C(=O)N[C@@H](C)C(=O)N[C@@H](CCC(=O)O)C(=O)N[C@@H](CCCCN)C(=O)N[C@@H](CC(N)=O)C(=O)N[C@@H](C)C(=O)N[C@@H](CCC(N)=O)C(=O)N[C@H](C(=O)N[C@@H](CC(C)C)C(=O)N[C@@H](C)C(=O)N[C@@H](CCC(N)=O)C(=O)N[C@H](C(N)=O)C(C)C)[C@@H](C)CC)[C@@H](C)CC)C(=O)O [compound 3] (H-IVLSLDVPIKLK([γGlu-Palmitoyl])KILLEQEKQEKEKQQAEKNAQILAQV-NH2)
0.18	8.17		2.53	> 1000	4.54	CC[C@H](C)[C@H](N)C(=O)N[C@H](C(=O)N[C@@H](CC(C)C)C(=O)N[C@@H](CO)C(=O)N[C@@H](CC(C)C)C(=O)N[C@@H](CC(=O)O)C(=O)N[C@@H](C(=O)N1CCC[C@H]1C(=O)N[C@H](C(=O)NCC(=O)N[C@@H](CC(C)C)C(=O)N[C@@H](CCCCNC(=O)COCCOCCNC(=O)COCCOCCNC(=O)CC[C@H](NC(=O)CCCCCCCCCCCCCCCCC(=O)O)C(=O)O)C(=O)N[C@@H](CCC(N)=O)C(=O)N[C@H](C(=O)N[C@@H](CC(C)C)C(=O)N[C@@H](CC(C)C)C(=O)N[C@@H](CCCCN)C(=O)N[C@@H](CCC(N)=O)C(=O)N[C@@H](CCC(=O)O)C(=O)N[C@@H](CCCNC(=N)N)C(=O)N[C@@H](CCC(N)=O)C(=O)N[C@@H](CCCCN)C(=O)N[C@@H](CCCCN)C(=O)NC(C)(C)C(=O)N[C@@H](CCCNC(=N)N)C(=O)N[C@@H](CCC(=O)O)C(=O)N[C@@H](CCC(N)=O)C(=O)N[C@@H](C)C(=O)N[C@@H](CCC(=O)O)C(=O)N[C@H](C(=O)N[C@@H](CC(N)=O)C(=O)N[C@@H](CCCCN)C(=O)N[C@@H](CCC(N)=O)C(=O)N[C@H](C(=O)N[C@@H](CC(C)C)C(=O)N[C@@H](C)C(=O)N[C@@H](CCC(N)=O)C(=O)N[C@H](C(N)=O)C(C)C)[C@@H](C)CC)[C@@H](C)O)[C@@H](C)CC)[C@@H](C)CC)C(C)C)C(C)C [compound 147] (H-IVLSLD[dV]PIGLK([AEEA-AEEA-γGlu-C18 diacid])QILLKQERQKK[Aib]REQAETNKQILAQV-NH2; N-terminus assumed)
0.08	3.87		0.49	> 1000	9.07	CC[C@H](C)[C@H](N)C(=O)N[C@H](C(=O)N[C@@H](CC(C)C)C(=O)N[C@@H](CO)C(=O)N[C@@H](CC(C)C)C(=O)N[C@@H](CC(=O)O)C(=O)N[C@@H](C(=O)N1CCC[C@H]1C(=O)N[C@H](C(=O)NCC(=O)N[C@@H](CC(C)C)C(=O)N[C@@H](CCCCNC(=O)COCCOCCNC(=O)COCCOCCNC(=O)CC[C@H](NC(=O)CCCCCCCCCCCCCCCCC(=O)O)C(=O)O)C(=O)N[C@@H](CCC(N)=O)C(=O)N[C@H](C(=O)N[C@@H](CC(C)C)C(=O)N[C@@H](CC(C)C)C(=O)N[C@@H](CCCCN)C(=O)N[C@@H](CCC(N)=O)C(=O)N[C@@H](CCC(=O)O)C(=O)N[C@@H](CCCNC(=N)N)C(=O)N[C@@H](CCC(N)=O)C(=O)N[C@@H](CCCCN)C(=O)N[C@@H](CCCCN)C(=O)NC(C)(C)C(=O)N[C@@H](CCCNC(=N)N)C(=O)N[C@@H](CCC(=O)O)C(=O)N[C@@H](CCC(N)=O)C(=O)N[C@@H](C)C(=O)N[C@@H](CCC(=O)O)C(=O)N[C@@H](CCCCN)C(=O)N[C@@H](CC(N)=O)C(=O)N[C@@H](CCCCN)C(=O)N[C@@H](CCCNC(=N)N)C(=O)N[C@H](C(=O)N[C@@H](CC(C)C)C(=O)N[C@@H](CCC(=O)O)C(=O)N[C@@H](CCCNC(=N)N)C(=O)N[C@H](C(N)=O)C(C)C)[C@@H](C)CC)[C@@H](C)CC)[C@@H](C)CC)C(C)C)C(C)C [compound 151] (H-IVLSLD[dV]PIGLK([AEEA-AEEA-γGlu-C18 diacid])QILLKQERQKK[Aib]REQAEKNKRILERV-NH2; N-terminus assumed)
